According to paper PMC9737972, “Dual LSD1 and HDAC6 Inhibition Induces Doxorubicin Sensitivity in Acute Myeloid Leukemia Cells” (Cancers, 2022):

Experiments:
[1] = tested on: K-562; assay: Cell Titer-Glo cell viability, K-562; format: cell-based; settings: Homo sapiens, K562; 120 h, ± standard deviation, three biological repeats; read-out: IC50 cell viability K-562
[2] = tested on: MOLM-13; assay: Cell Titer-Glo cell viability, MOLM-13; format: cell-based; settings: Homo sapiens, MOLM-13; 120 h, ± standard deviation, three biological repeats; read-out: IC50 cell viability MOLM-13
[3] = target: T1, C-terminal His-tag-HDAC8 (Homo sapiens, UniProt Q9BY41); assay: HDAC-Glo I/II enzyme assay, HDAC8; format: biochemical; settings: ± standard error, three independent measurements
T1 construct: His (C); purchased BPS Bioscience 50008
T1 sequence (Q9BY41 1-377): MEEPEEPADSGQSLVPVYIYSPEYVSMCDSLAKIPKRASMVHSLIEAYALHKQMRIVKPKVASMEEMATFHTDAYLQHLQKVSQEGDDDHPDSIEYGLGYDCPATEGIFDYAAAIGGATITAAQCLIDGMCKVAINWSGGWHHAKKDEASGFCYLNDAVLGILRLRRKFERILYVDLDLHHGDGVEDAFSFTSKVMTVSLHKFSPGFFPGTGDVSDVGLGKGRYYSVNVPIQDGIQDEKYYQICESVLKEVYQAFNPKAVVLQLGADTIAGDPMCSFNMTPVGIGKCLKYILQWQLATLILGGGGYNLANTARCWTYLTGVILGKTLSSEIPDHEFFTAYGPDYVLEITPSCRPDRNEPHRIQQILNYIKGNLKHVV

[4] = tested on: Jurkat; assay: Cell Titer-Glo cell viability, Jurkat; format: cell-based; settings: Homo sapiens, 120 h, ± standard deviation, three biological repeats, read-out: IC50 cell viability Jurkat
[5] = target: T2, HDAC-3/NcoR2 (Homo sapiens, UniProt O15379); assay: HDAC-Glo I/II enzyme assay, HDAC3; format: biochemical; settings: ± standard error, three independent measurements
T2 construct: purchased BPS Bioscience 50003

[6] = tested on: THP-1 cells; assay: RT-qPCR gene expression in THP-1 cells; format: cell-based; settings: for p21 mRNA expression: THP-1 cells, 1 μM, 24 h
Protocol: NucleoSpin™ RNA Plus Isolation Kit (Macherey Nagel™, Dueren, Germany, 740955.50) and M-MLV Reverse Transcriptase kit (Thermo Fisher Scientific, Waltham, MA, USA, #28025013) protocols were employed for RNA isolation and cDNA synthesis, respectively, with 500 ng of RNA converted to cDNA for each sample. Gene expression levels were quantified with qRT–PCR method using a LightCycler 480 SYBR Green I Master (Roche Diagnostics, Penzberg, Germany, #50-720-3180) and normalized to β-actin or GAPDH. Briefly, 10 ng of cDNA template was amplified using 10 μL LightCycler 480 SYBR Green I Master (Roche Diagnostics), and gene-specific primers (Table S1) mixed in a final volume of 20 μL. The samples were incubated at 95 °C for 5 minutes, followed by 40 cycles of 95 °C for 10 seconds, 55 °C for 30 seconds, and 72 °C for 1 second. The relative amounts of gene expressions were calculated with the 2^(−ΔΔCT) method. All analyses were performed in duplicates and three biological replicas.
Figure 4 Assessment of biological activity through changes in methylation or acetylation and cell differentiation (A–C). Colored graphs illustrate epidrug targets and visualize expected outcomes upon target inhibition. Blue cylinders represent histone octomers (A,B) and green tubes represent microtubules (C). […] Histone methylation, histone acetylation, and α-tubulin acetylation levels were quantified from Western blot band intensities (Figure S18). Full Western blot images can be found in Figure S30. (D,E) Expression levels of mRNA were measured by RT-qPCR analysis and were normalized to two housekeeping genes, β-actin and GAPDH, for p21 and CD11b and CD86. […] Relative expression was determined with the 2(^−ΔΔCT) method, and the data are represented as the average ± standard error of the mean of two biological repeats with technical duplicates. (* p < 0.05, ** p < 0.01 student t-test). Illustrations were generated in BioRender.com.

[7] = target: T3, Human recombinant C-ter-His-FLAG-HDAC1 (Homo sapiens, UniProt Q13547); assay: HDAC-Glo I/II enzyme assay, HDAC1; format: biochemical; settings: ± standard error, three independent measurements
T3 construct: His (C); FLAG (C); purchased BPS Bioscience 50051
T3 sequence (Q13547 whole entry): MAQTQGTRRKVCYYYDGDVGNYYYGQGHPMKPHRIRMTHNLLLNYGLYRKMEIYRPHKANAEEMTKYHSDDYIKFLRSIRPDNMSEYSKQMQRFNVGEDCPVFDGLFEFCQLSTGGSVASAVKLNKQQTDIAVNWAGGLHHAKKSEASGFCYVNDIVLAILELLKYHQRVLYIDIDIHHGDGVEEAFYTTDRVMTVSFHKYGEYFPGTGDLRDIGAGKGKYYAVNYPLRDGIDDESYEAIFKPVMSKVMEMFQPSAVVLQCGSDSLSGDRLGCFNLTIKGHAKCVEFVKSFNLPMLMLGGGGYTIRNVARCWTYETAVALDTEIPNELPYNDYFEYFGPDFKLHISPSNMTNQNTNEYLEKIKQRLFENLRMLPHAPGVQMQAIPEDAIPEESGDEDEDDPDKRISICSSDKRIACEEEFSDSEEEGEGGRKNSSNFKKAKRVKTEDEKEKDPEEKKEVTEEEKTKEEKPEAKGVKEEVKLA

T2 sequence (O15379 whole entry): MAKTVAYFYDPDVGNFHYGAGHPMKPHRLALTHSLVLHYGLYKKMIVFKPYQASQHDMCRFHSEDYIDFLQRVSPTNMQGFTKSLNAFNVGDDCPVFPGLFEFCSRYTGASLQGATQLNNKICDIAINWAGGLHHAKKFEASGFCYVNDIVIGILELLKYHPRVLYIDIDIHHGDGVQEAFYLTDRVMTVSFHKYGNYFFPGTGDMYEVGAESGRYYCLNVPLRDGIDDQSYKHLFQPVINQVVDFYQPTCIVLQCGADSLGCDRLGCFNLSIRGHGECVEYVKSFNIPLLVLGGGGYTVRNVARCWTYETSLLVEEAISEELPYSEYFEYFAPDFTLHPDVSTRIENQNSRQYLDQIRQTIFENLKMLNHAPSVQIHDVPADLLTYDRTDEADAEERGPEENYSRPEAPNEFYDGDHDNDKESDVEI
T2 sequence (Q9Y618 395-489 partner limits assumed): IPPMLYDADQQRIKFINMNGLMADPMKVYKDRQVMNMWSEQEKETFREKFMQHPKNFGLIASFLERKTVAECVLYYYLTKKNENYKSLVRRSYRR

SMILES | IC50 [1] | IC50 [2] | IC50 [3] | IC50 [4] | IC50 [5] | ATM expression increase ([6]; THP-1, 5 μM, 72 h) | ATR expression increase ([6]; THP-1, 5 μM, 72 h) | expression of a panel of ABC transporters ([6]; THP-1, 5 μM, 72 h) | expression of doxorubicin sensitizer genes (AGPAT9, ALOX5, BTG1, HIPK2, IFI44L, LRP1) ([6]; THP-1, 5 μM, 72 h, all targets of Table 3 except Wnt7B) | Rad51 expression increase ([6]; THP-1, 5 μM, 72 h, p ≤ 0.001) | p21 mRNA expression [6] | IC50 [7]
O=C(NO)c1ccc(CN2CCC(CN[C@@H]3C[C@H]3c3ccccc3)CC2)cc1 (relative stereo) [iDual] | 16.6 ± 2.7 µM | 1.3 ± 0.4 µM | 0.29 ± 0.04 µM | 15.5 ± 1.4 µM | 2.29 ± 0.14 µM | ~ two-fold | ~ two-fold | no decrease | upregulated | three-fold | increased | 5.31 ± 0.25 µM
O=C(NO)c1ccc(CN2CCC(CNC3(c4ccccc4)CC3)CC2)cc1 [iHDAC6] | 17.6 ± 1.6 µM | 6.7 ± 1.6 µM | 0.45 ± 0.07 µM | 10.7 ± 0.8 µM | 4.09 ± 0.26 µM | – | – | – | – | – | increased | 7.57 ± 0.29 µM
